Assay results from US9445590B2, “Fungicidal composition comprising a pyridylethylbenzamide derivative and a compound capable of inhibiting the transport of electrons of the respiratory chain in phytopathogenic fungal organisms” (BAYER INTELLECTUAL PROPERTY GMBH, priority 2004, dated 2016).

Tests used:
[1] = test system: Alternaria brassicae; assay: Efficacy against Alternaria brassicae (in vitro), growth on PDA medium; format: cell-based; settings: radial growth after 14 days
Method: The growth of Alternaria brassicae was followed on PDA medium containing the compounds alone or in mixtures. The PDA medium is prepared by mixing 39 grams of PDA (Merck) in 1 litter of demineralised water. The medium is sterilized by autoclave 15 minutes at 121° C. The compounds are dissolved in acetone and added to the medium before pouring it in Petri dishes. After medium drying, the fungus is inoculated on the medium and allowed to growth at 19° C. The percentage of efficacy is noted after 14 days of growth (measurement of the radial growth) of the fungus in comparison with a control. […]

[2] = test system: Sphaerotheca fuliginea; assay: Efficacy against Sphaerotheca fuliginea on gherkin plants (preventive spray); format: in vivo; settings: Podosphaera fuliginea, 504 h, grading 21 days after contamination
Method: (§1) The active ingredients tested are prepared by potter homogenisation in a mixture of acetone/tween/water. This suspension is then diluted with water to obtain the desired active material concentration.
(§2) Gherkin plants (Vert petit de Paris variety) in starter cups, sown on a 50/50 peat soil-pozzolana substrate and grown at 20° C./23° C., are treated at the 2-leaves stage by spraying with the aqueous suspension described above. Plants, used as controls, are treated with an aqueous solution not containing the active material.
After 24 hours, the plants are contaminated by spraying them with an aqueous suspension of Sphaerotheca fuliginea spores (100 000 spores per ml). The spores are collected from a contaminated plants. The contaminated gherkin plants are incubated at about 20° C./25° C. and at 60/70% relative humidity.
Grading (% of efficacy) is carried out 21 days after the contamination, in comparison with the control plants.

[3] = test system: Botrytis cinerea; assay: Efficacy against Botrytis cinerea on gherkin plants (preventive spray); format: in vivo; settings: grading 5 to 7 days after contamination
Method: as §1
as §2, with “(Petit vert” for “(Vert petit”, “18-20°” for “20° C./23°”, “cotyledon Z11” for “2-leaves”
After 24 hours, the plants are contaminated by depositing drops of an aqueous suspension of Botrytis cinerea spores (150,000 spores per ml) on upper surface of the leaves. The spores are collected from a 15-day-old culture and are suspended in a nutrient solution composed of: • 20 g/L of gelatine • 50 g/L of cane sugar • 2 g/L of NH4NO3 • 1 g/L of KH2PO4
The contaminated gherkin plants are settled for 5/7 days in a climatic room at 15-11° C. (day/night) and at 80% relative humidity. Grading is carried out 5 to 7 days after contamination, in comparison with the control plants.
as §2, with “(Petit vert” for “(Vert petit”, “18-20°” for “20° C./23°”, “cotyledon Z 11” for “2-leaves”
(§3) The formulated compounds are diluted with water to obtain the desired active material concentration.

[4] = test system: Erysiphe graminis f. sp. tritici; assay: Efficacy against Erysiphe graminis f. sp. tritici on wheat plants (preventive spray); format: in vivo; settings: grading 7 to 14 days after contamination
Method: as §1
(§4) Wheat plants (Audace variety) in starter cups, sown on 50/50 peat soil-pozzolana substrate and grown at 12° C., are treated at the 1-leaf stage (10 cm tall) by spraying with the aqueous suspension described above.
(§5) Plants, used as controls, are treated with an aqueous solution not containing the active material.
After 24 hours, the plants are contaminated by dusting them with Erysiphe graminis f. sp. tritici spores, the dusting being carried out using diseased plants.
Grading is carried out 7 to 14 days after the contamination, in comparison with the control plants.
as §3
as §4, with “above. Plants, used as controls, are treated with an aqueous solution not containing the active material.” for “above.”

[5] = test system: Alternaria brassicae; assay: Efficacy against Alternaria brassicae on radish plants (preventive spray); format: in vivo; settings: Example 13, dose 111 ppm, grading 6 to 7 days after contamination
Method: as §3
Radish plants (Pernot variety) in starter cups, sown on a 50/50 peat soil-pozzolana substrate and grown at 18-20° C., are treated at the cotyledon stage by spraying with the aqueous suspension described above.
as §5
After 24 hours, the plants are contaminated by spraying them with an aqueous suspension of Alternaria brassicae spores (40,000 spores per cm^3). The spores are collected from a 12-13-day-old culture.
The contaminated radish plants are incubated for 6-7 days at about 18° C., under a humid atmosphere.
Grading is carried out 6 to 7 days after the contamination, in comparison with the control plants.

[6] = test system: Pyrenophora teres; assay: Efficacy against Pyrenophora teres on barley plants (preventive spray); format: in vivo; settings: 288 h, grading 12 days after contamination
Method: as §1
as §2, with “Barley” for “Gherkin”, “(Express” for “(Vert petit de Paris”, “12°” for “20° C./23°”, “1-leaf” for “2-leaves”, “stage (10 cm tall)” for “stage”
After 24 hours, the plants are contaminated by spraying them with an aqueous suspension of Pyrenophora teres spores (12 000 spores per ml). The spores are collected from a 12-day-old culture. The contaminated barley plants are incubated for 24 hours at about 20° C. and at 100% relative humidity, and then for 12 days at 80% relative humidity.
Grading (% of efficacy) is carried out 12 days after the contamination, in comparison with the control plants.

With CO/C=C(/C(=O)OC)c1ccccc1Oc1cc(Oc2ccccc2C#N)ncn1 [Azoxystrobin, azoxystrobin] the “% Efficacy” value ([1]; Example 3, dose 0.025 ppm) was 38%, the “% Efficacy” value ([1]; Example 3, dose 0.05 ppm) was 41% and the “% Efficacy” value ([1]; Example 3, dose 0.1 ppm) was 47%. For the same compound, the “% Efficacy” value ([1]; Example 3, dose 0.25 ppm) was 56%, the “% Efficacy” value ([1]; Example 3, dose 0.5 ppm) was 47% and the “% Efficacy” value ([1]; Example 3, dose 1 ppm) was 48%. For the same compound, the “% Efficacy” value ([1]; Example 3, dose 2.5 ppm) was 49%.

O=C(Nc1ccccc1-c1ccc(Cl)cc1)c1cccnc1Cl [Boscalid, boscalid, reference compound] gave an Emax at 4 ppm ([2]; Example 11, dose 4 ppm) of 0%, an Emax at 8 ppm ([2]; Example 11, dose 8 ppm) of 10% and an Emax at 15 ppm ([2]; Example 11, dose 15 ppm) of 45%.

CNC(=O)C(=NOC)c1ccccc1Oc1ncnc(Oc2cccc(Cl)c2C)c1F [Compound A, 2-{2-[6-(3-Chloro-2-methylphenoxy)-5-fluoro-pyrimidin-4-yloxy]-phenyl}2-methoxyimino-N-methylacetamide] showed an Emax at 37 ppm ([3]; Botrytis cinerea, Example 8, dose 37 ppm) of 0%, an Emax at 111 ppm ([3]; Botrytis cinerea, Example 8, dose 111 ppm) of 0% and an Emax at 333 ppm ([3]; Botrytis cinerea, Example 8, dose 333 ppm) of 0%.

With Cc1nn(C)c(F)c1C(=O)Nc1ccccc1C(C)CC(C)C (centres unmarked) [Compound B, N-[2-(1,3-dimethyl-butyl)-phenyl]-5-fluoro-1,3-dimethyl-1H-pyrazole-4-carboxamide] the Emax at 4 ppm ([3]; Botrytis cinerea, Example 10, dose 4 ppm) was 32%.

For Cn1cc(C(=O)Nc2ccc(F)cc2-c2ccc(Cl)c(Cl)c2)c(C(F)F)n1 [Compound C, N-(3′,4′-dichloro-5-fluorobiphenyl-2-yl)-3-(difluoro-methyl)-1-methyl-1H-pyrazole-4-carboxamide], the Emax at 31.2 ppm ([2]; Example 12, dose 31.2 ppm) was 0% and the Emax at 62.5 ppm ([2]; Example 12, dose 62.5 ppm) was 0%.

CC(C)CC(C)c1sccc1NC(=O)c1cn(C)nc1C(F)(F)F (centres unmarked) [Compound D, N-[2-(1,3-dimethylbutyl)-thiophen-3-yl]1-methyl-3-(trifluoromethyl)-1H-pyrazole-4-carboxamide] was tested, and the Emax at 250 ppm ([3]; Botrytis cinerea, Example 14, dose 250 ppm, formulated compounds) was 60%.

In the case of CNC(=O)/C(=N/OC)c1ccccc1COc1cc(C)ccc1C [Dimoxystrobin, dimoxystrobin, reference compound], the “% Efficacy” value ([4]; Example 9, dose 62.5 g/ha, formulated compounds) is reported as 0%.

CSC1=N[C@@](C)(c2ccccc2)C(=O)N1Nc1ccccc1 [Fenamidone, fenamidone, reference compound] was tested, and the Emax at 111 ppm [5] was 55%.

With CO/N=C(/C1=NOCCO1)c1ccccc1Oc1ncnc(Oc2ccccc2Cl)c1F [Fluoxastrobin, fluoxastrobin, reference compound] the Emax at 15 ppm ([4]; Blumeria graminis, Example 4, dose 15 ppm) was 20%.

CO/N=C(/C(=O)OC)c1ccccc1COc1ccccc1C [Kresoxim-methyl, kresoxim-methyl, reference compound] showed an Emax at 37 ppm ([3]; Botrytis cinerea, Example 5, dose 37 ppm) of 0%, an Emax at 111 ppm ([3]; Botrytis cinerea, Example 5, dose 111 ppm) of 0% and an Emax at 333 ppm ([3]; Botrytis cinerea, Example 5, dose 333 ppm) of 0%.

CO/C=C(/C(=O)OC)c1ccccc1COc1cccc(C(F)(F)F)n1 [Picoxystrobin, picoxystrobin, reference compound] was tested, and the “% Efficacy” value ([3]; Example 6, dose 37 ppm) was 0%, the “% Efficacy” value ([3]; Example 6, dose 111 ppm) was 35% and the “% Efficacy” value ([3]; Example 6, dose 333 ppm) was 40%.

COC(=O)N(OC)c1ccccc1COc1ccn(-c2ccc(Cl)cc2)n1 [Pyraclostrobin, pyraclostrobin, reference compound] showed an Emax at 37 ppm ([3]; Botrytis cinerea, Example 7, dose 37 ppm) of 0%, an Emax at 111 ppm ([3]; Botrytis cinerea, Example 7, dose 111 ppm) of 0% and an Emax at 333 ppm ([3]; Botrytis cinerea, Example 7, dose 333 ppm) of 0%.

CON=C(C(=O)OC)c1ccccc1CON=C(C)c1cccc(C(F)(F)F)c1 [Trifloxystrobin, trifloxystrobin] was tested, and the Emax at 0.025 ppm ([1]; Alternaria brassicae, 336 h, Example 2, dose 0.025 ppm) was 45%, the Emax at 0.05 ppm ([1]; Alternaria brassicae, 336 h, Example 2, dose 0.05 ppm) was 44% and the Emax at 0.1 ppm ([1]; Alternaria brassicae, 336 h, Example 2, dose 0.1 ppm) was 45%. The Emax at 0.25 ppm ([1]; Alternaria brassicae, 336 h, Example 2, dose 0.25 ppm) was 53%, the Emax at 0.5 ppm ([1]; Alternaria brassicae, 336 h, Example 2, dose 0.5 ppm) was 60% and the Emax at 1 ppm ([1]; Alternaria brassicae, 336 h, Example 2, dose 1 ppm) was 65%. It also gave an Emax at 2.5 ppm ([1]; Alternaria brassicae, 336 h, Example 2, dose 2.5 ppm) of 71%, an Emax at 4 g/ha ([6]; Example 1, dose 4 g/ha) of 50% and an Emax at 8 g/ha ([6]; Example 1, dose 8 g/ha) of 70%.
